The experiment deals with PBMCs from HD or T1D patients. Put plainly: Quantification of IL-2 specific T cells by IFN-g ELISPOT. Format: cell-based, human. The following applies: peptides 10 μM/each; T1D patients (n=13) vs HD (n=14) PBMCs. As to the method:
IFN-g production by PBMCs from HD (n=14, closed circles) or T1D patients (n=13, open circles) was quantified by ELISPOT after stimulation with hIL-2 or Proleukin (Pro) peptides (10 μM/each) that gave a positive response in the initial pool screening, intracellular IA-2, adenovirus lysate (AdV) or PHA.

In the case of “EFLNRWITFSQSIIS (Synthetic fragment) [Pro116-130]”, the “IFN-g production by PBMCs (ELISPOT, IFN-g spot-forming cells/10^6 PBMCs)” value is listed as “can induce IFN-g production in a significantly higher frequency of T1D PBMCs compared to HD PBMCs”.

Values taken from patent US10114018B2, “IL-2 peptide derivatives, and uses thereof for the diagnosis and treatment of an autoimmune disease” (INSERM (INSTITUT NATIONAL DE LA SANTÉ ET DE LA RECHERCHE …, priority 2014, dated 2018).
